Test results taken from the NIST ThermoML archive (doi:10.1021/je0201370).

Columns and labels:
[1] = 298.1 K; 101.33 kPa; Liquid; vibrating tube
[2] = excess molar enthalpy (molar enthalpy of mixing); xn = mol fraction of the nth substance listed; details: 101 kPa, Liquid

c1ccccc1 [benzene]
Details	mass density [kg/m3]
[1]	873.45

CCCCCCO [hexan-1-ol]
Details	mass density [kg/m3]
[1]	815.16

CCCCCCO [hexan-1-ol] + c1ccccc1
[2]
Details	excess molar enthalpy [kcal/mol]
298 K, x1 = 0.0619	0.155
298 K, x1 = 0.0988	0.197
298 K, x1 = 0.1383	0.231
298 K, x1 = 0.1909	0.258
298 K, x1 = 0.2287	0.273
298 K, x1 = 0.2675	0.283
298 K, x1 = 0.3137	0.289
298 K, x1 = 0.3792	0.291
298 K, x1 = 0.4153	0.284
298 K, x1 = 0.4625	0.271
298 K, x1 = 0.5107	0.261
298 K, x1 = 0.5648	0.242
298 K, x1 = 0.6192	0.217
298 K, x1 = 0.7214	0.163
298 K, x1 = 0.7711	0.139
298 K, x1 = 0.8482	0.0908
298 K, x1 = 0.8884	0.0691
298 K, x1 = 0.979	0.0136
308 K, x1 = 0.037	0.115
308 K, x1 = 0.0647	0.173
308 K, x1 = 0.1001	0.217
308 K, x1 = 0.1428	0.256
308 K, x1 = 0.1815	0.279
308 K, x1 = 0.2272	0.299
308 K, x1 = 0.2476	0.306
308 K, x1 = 0.3195	0.317
308 K, x1 = 0.3867	0.322
308 K, x1 = 0.463	0.313
308 K, x1 = 0.4675	0.31
308 K, x1 = 0.5017	0.303
308 K, x1 = 0.5463	0.288
308 K, x1 = 0.593	0.266
308 K, x1 = 0.6577	0.231
308 K, x1 = 0.7485	0.177
308 K, x1 = 0.8067	0.137
308 K, x1 = 0.8318	0.119
308 K, x1 = 0.8867	0.0796
308 K, x1 = 0.9323	0.0478

CCCOC(=O)CC [propyl propanoate]
Details	mass density [kg/m3]
[1]	875.53

CCCOC(=O)CC [propyl propanoate] + CCCCCCO
[2], 308 K
Details	excess molar enthalpy [kcal/mol]
x1 = 0.0406	0.0552
x1 = 0.089	0.116
x1 = 0.1367	0.17
x1 = 0.1766	0.208
x1 = 0.247	0.269
x1 = 0.3217	0.315
x1 = 0.3805	0.34
x1 = 0.4198	0.355
x1 = 0.4667	0.361
x1 = 0.5259	0.367
x1 = 0.5961	0.362
x1 = 0.6484	0.349
x1 = 0.6999	0.327
x1 = 0.7542	0.299
x1 = 0.7995	0.263
x1 = 0.8595	0.205
x1 = 0.9109	0.143
x1 = 0.9496	0.0872
